How the values were obtained:
[1] = biological target: T1, OASS (O-acetylserine sulfhydrylase) (Arabidopsis thaliana, UniProt P47998); assay: biochemical
[2] = biological target: T1, OASS (O-acetylserine sulfhydrylase); assay: fluorescence polarization competition; type: binding

T1 sequence (P47998 whole entry): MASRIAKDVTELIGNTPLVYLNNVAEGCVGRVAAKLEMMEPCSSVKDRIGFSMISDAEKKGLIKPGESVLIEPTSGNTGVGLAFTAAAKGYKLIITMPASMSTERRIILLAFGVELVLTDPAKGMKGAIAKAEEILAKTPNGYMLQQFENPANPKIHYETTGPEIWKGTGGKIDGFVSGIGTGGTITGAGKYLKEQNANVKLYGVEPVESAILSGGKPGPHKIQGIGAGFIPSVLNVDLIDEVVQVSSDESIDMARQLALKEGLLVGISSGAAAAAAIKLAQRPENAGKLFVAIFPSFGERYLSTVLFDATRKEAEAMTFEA

| SMILES | IC50 ([1]; read-out: FP IC50, inhibitor) [µM] | IC50 [1] [µM] | IC50 [2] [µM] |
| --- | --- | --- | --- |
| O=C(O)c1ccccc1-c1ccccc1C(=O)Nc1cccc(-c2nc3ccccc3[nH]2)c1 [PJ8] | 4.1 |  |  |
| NCCc1ccc(-c2csc(NC(=O)c3ccccc3-c3ccccc3C(=O)O)n2)cc1 [PJ13] |  | 2 |  |
| CC(C)Cc1ccc(-c2csc(NC(=O)c3ccccc3-c3ccccc3C(=O)O)n2)cc1 [PJ14] |  | 4.8 | 5.4 |
| O=C(O)c1ccccc1-c1ccccc1C(=O)Nc1nc(-c2ccc(Cl)cc2Cl)cs1 [PJ15] |  |  | 4.7 |
| COc1ccc(-c2cc(NC(=O)c3ccccc3-c3ccccc3C(=O)O)n(CCO)n2)cc1 [PJ34] |  |  | 50 |
| O=C(Nc1cccc(NC(=O)c2ccccc2-c2ccccc2C(=O)O)c1)c1nccs1 [compound 11, 11] |  | 10.1 |  |
| Nc1cc(F)ccc1-c1csc(NC(=O)c2ccccc2-c2ccccc2C(=O)O)n1 [compound 17] |  | 2.7 |  |
| O=C(O)c1ccccc1-c1cccnc1C(=O)Nc1nc(-c2ccc(Cl)cc2Cl)cs1 [compound 18] | 12.2 |  |  |
| COc1ccc(-c2nc(NC(=O)c3ccccc3-c3ccccc3C(=O)O)sc2C)cc1 [compound 33, 33] |  | 6.7 |  |

From doi:10.1101/2024.02.03.578754v1 (biorxiv, 2024)
